From US8809341B2, “2,4-pyrimidinediamine compounds and uses as anti-proliferative agents” (Rigel Pharmaceuticals, Inc., priority 2003, dated 2014)

Legend:
A549 cells = assay: in vitro antiproliferation assay, A549 (lung); format: cell-based
In short: (§1)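 Standard in vitro antiproliferation assays on tumour cell lines, including A549 and H1299 (both lung); IC50 values determined.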

H1299 cells = assay: in vitro antiproliferation assay, H1299 (lung); format: cell-based
In short: as §1

[1] = A549 (lung) cells, antiproliferation
[2] = H1299 (lung) cells, antiproliferation
[3] = IC50 class against A549 (lung) tumor cells
[4] = IC50 class against H1299 (lung) tumor cells

| SMILES | IC50 (A549 cells; [1]) [µM] | IC50 (H1299 cells; [2]) [µM] | IC50 (A549 cells; [3]) [µM] | IC50 (H1299 cells; [4]) [µM] |
| --- | --- | --- | --- | --- |
| O=C(COc1cccc(Nc2ncc(F)c(Nc3ccc(N4CCOCC4)cc3)n2)c1)NC1CCC1 [compound 990] | ≤ 20 | ≤ 20 |  |  |
| CNC(=O)COc1cccc(Nc2ncc(F)c(Nc3ccc(N4CCOCC4)cc3)n2)c1 [compound 992] | > 20 | > 20 |  |  |
| CNC(=O)COc1cccc(Nc2ncc(F)c(Nc3ccc(N4CCN(C(=O)OC)CC4)cc3)n2)c1 [compound 993] | ≤ 20 | ≤ 20 |  |  |
| Fc1cnc(Nc2cccc(-c3ncco3)c2)nc1Nc1cccc(-c2ncco2)c1 [compound 995] | ≤ 20 | ≤ 20 |  |  |
| CCOC(=O)COc1cccc(Nc2ncc(F)c(Nc3cc(Cl)c(O)c(Cl)c3)n2)c1 [compound 999] | > 20 | > 20 |  |  |
| O=C(COc1cccc(Nc2ncc(F)c(Nc3cc(Cl)c(O)c(Cl)c3)n2)c1)N1CCNCC1 [compound 1001] | > 20 | > 20 |  |  |
| CC(C)(C)OC(=O)NCc1ccc(Nc2ncc(F)c(Nc3ccc(CNC(=O)OC(C)(C)C)cc3)n2)cc1 [compound 1012] | ≤ 20 | ≤ 20 |  |  |
| CC(C)(C)OC(=O)NCc1cccc(Nc2ncc(F)c(Nc3cccc(CNC(=O)OC(C)(C)C)c3)n2)c1 [compound 1015] | ≤ 20 | ≤ 20 |  |  |
| CCN(CC)CCNC(=O)c1ccc(Nc2ncc(F)c(Nc3ccc(OC)c(Cl)c3)n2)cc1 [compound 1021] | ≤ 20 | ≤ 20 |  |  |
| COc1ccc(Nc2nc(Nc3ccc(CNC(=O)OC(C)(C)C)cc3)ncc2F)cc1Cl [compound 1023] | ≤ 20 | ≤ 20 |  |  |
| CNC(=O)COc1ccc(Nc2ncc(F)c(Nc3ccc(OC)c(Cl)c3)n2)cc1 [compound 1025] | > 20 | ≤ 20 |  |  |
| CCN(CC)CCNC(=O)c1ccc(Nc2ncc(F)c(N(C)c3ccc(Cl)c(Cl)c3)n2)cc1 [compound 1031] | ≤ 20 | ≤ 20 |  |  |
| COc1ccc(Nc2nc(Nc3ccc(C(N)=O)c(Cl)c3)ncc2F)cc1Cl [compound 1033] | ≤ 20 | ≤ 20 |  |  |
| CCN(CC)CCNC(=O)c1ccc(Nc2ncc(F)c(Nc3ccc(Cl)c(OC)c3)n2)cc1 [compound 1035] | ≤ 20 | ≤ 20 |  |  |
| CNc1ncc(F)c(N(C)c2ccc3c(c2)OCCO3)n1 [compound 1038] |  |  | ≤ 20 | ≤ 20 |
| CN(C)c1ncc(F)c(N(C)c2ccc3c(c2)OCCO3)n1 [compound 1039] |  |  | ≤ 20 | ≤ 20 |
| CN(c1ccc2c(c1)OCCO2)c1nc(NCCO)ncc1F [compound 1040] |  |  | ≤ 20 | ≤ 20 |
| CC(C)Nc1ncc(F)c(N(C)c2ccc3c(c2)OCCO3)n1 [compound 1041] |  |  | ≤ 20 | ≤ 20 |
| CN(c1ccc2c(c1)OCCO2)c1nc(N(CCO)CCO)ncc1F [compound 1042] |  |  | > 20 | ≤ 20 |
| C=CCNc1ncc(F)c(N(C)c2ccc3c(c2)OCCO3)n1 [compound 1043] |  |  | ≤ 20 | ≤ 20 |
| CNc1ncc(F)c(Nc2ccc3c(c2)OCCO3)n1 [compound 1044] |  |  | > 20 | > 20 |
| COc1ccc(Nc2ncc(F)c(Nc3ccc4c(c3)OCCO4)n2)c(C)c1 [compound 1046] |  |  | ≤ 20 | ≤ 20 |
| COc1ccc(C)c(Nc2ncc(F)c(Nc3ccc4c(c3)OCCO4)n2)c1 [compound 1047] |  |  | ≤ 20 | ≤ 20 |

The remaining lines, values ahead:

| IC50 (A549 cells; [1]) [µM] | IC50 (H1299 cells; [2]) [µM] | IC50 (A549 cells; [3]) [µM] | IC50 (H1299 cells; [4]) [µM] | SMILES |
| --- | --- | --- | --- | --- |
| ≤ 20 | ≤ 20 |  |  | NCc1ccc(Nc2ncc(F)c(Nc3ccc(CN)cc3)n2)cc1 [compound 1013] |
| ≤ 20 | ≤ 20 |  |  | COc1ccc(Nc2nc(Nc3ccc(C(N)=O)cc3)ncc2F)cc1Cl [compound 1022] |
| > 20 | ≤ 20 |  |  | NC(=O)c1ccc(Nc2nc(Nc3cccc(O)c3)ncc2F)cc1 [compound 1026] |
| ≤ 20 | ≤ 20 |  |  | NC(=O)c1ccc(Nc2nc(Nc3cc(Cl)c(O)c(Cl)c3)ncc2F)cc1 [compound 1027] |
| ≤ 20 | ≤ 20 |  |  | COc1ccc(Nc2ncc(F)c(Nc3ccc(C(N)=O)cc3)n2)cc1Cl [compound 1028] |
| > 20 | > 20 |  |  | NC(=O)c1ccc(Nc2ncc(F)c(Nc3ccc(C(N)=O)cc3)n2)cc1 [compound 1029] |
| ≤ 20 | ≤ 20 |  |  | CN(c1ccc(Cl)c(Cl)c1)c1nc(Nc2ccc(C(N)=O)cc2)ncc1F [compound 1030] |
| > 20 | > 20 |  |  | COc1cc(Nc2nc(Nc3ccc(C(N)=O)cc3)ncc2F)ccc1Cl [compound 1032] |
| > 20 | ≤ 20 |  |  | COc1cc(Nc2nc(Nc3ccc(C(N)=O)c(Cl)c3)ncc2F)ccc1Cl [compound 1034] |
| ≤ 20 | ≤ 20 |  |  | NC(=O)c1ccc(Nc2ncc(F)c(Nc3ccccc3)n2)cc1 [compound 1036] |
